In patent publication US8987195B2 (priority 2012, dated 2015):
Where two headings read alike, the source gives them in different places.

Assays:
HCV genotype 1b replicon = assay: HCV replicon assay, genotype 1b replicon EC50; type: cell-based, Hepatitis C virus; conditions: Hepatitis C virus, read-out: EC50 [gt-1b]
How it was run: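 Potency comes from a four-parameter fit of signal as percent of DMSO control. Replicon-bearing cells were treated 24-48 hours with a compound dilution series in absence of G418, and replicon RNA was quantified normalized to cyclophilin A RNA, or luciferase read.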

[1] = target: HCV NS3/4A protease genotype 1b (Hepatitis C virus genotype 1b, UniProt P26663); assay: HCV NS3/4A protease time-resolved fluorescence (TRF) assay, Ki against genotype 1b; type: biochemical
How it was run: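 Ki was converted from fitted IC50 using IC50=Ki(1+[S]/KM) and 25 nM substrate. Protease (genotype 1b 0.2 nM, A156T 0.4 nM, 3a 0.025 nM) and compound were pre-mixed 30 min in pH 7.5 HEPES/NaCl/glycerol/DTT buffer. Cleavage then proceeded 2.5 h at room temperature, detected by time-resolved europium fluorescence (340/615 nm).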

[2] = IC50 [gt-1b], NS3/4A protease TRF assay, genotype 1b enzyme 0.2 nM
[3] = IC50 [gt-1b] (nM), NS3/4A genotype 1b, enzyme 0.2 nM
[4] = IC50 [gt-1b] (nM), NS3/4A genotype 1b, enzyme 0.2 nM, K+ salt

SMILES | EC50 (HCV genotype 1b replicon; genotype 1b replicon) [pM] | IC50 [1, 3] [nM] | further results
COc1ccc2nc(C(F)(F)F)c3c(c2c1)[C@H](F)C[C@]1(C[C@H]2C(=O)N[C@]4(C(=O)NS(=O)(=O)C5(C)CC5)C[C@H]4/C=C\CCCCC[C@H](NC(=O)OCC(C)(C)C)C(=O)N2C1)O3 [Example 462, 2,2-dimethylpropyl [(1′R,2S,6S,12Z,13aS,14aR,16aS)-1′-fluoro-9′-methoxy-14a-{[(1-methylcyclopropyl)sulfonyl]carbamoyl}-5,16-dioxo-5′-(trifluoromethyl)-1,1′,2′,5,6,7,8,9,10,11,13a,14,14a,15,16,16a-hexadecahydrospiro[cyclopropa[e]pyrrolo[1,2-a][1,4]diazacyclopentadecine-2,3′-pyrano[2,3-c]quinolin]-6-yl]carbamate] | – | – | EC50 (HCV genotype 1b replicon; HCV replicon, genotype 1b): 5750 pM; IC50 [1, 2]: 0.036 nM
Cc1nc2ccccc2c2c1O[C@]1(CC2)C[C@H]2C(=O)N[C@]3(C(=O)NS(=O)(=O)C4(C)CC4)C[C@H]3/C=C\CCCCC[C@H](NC(=O)OC3C[C@H]4C=C[C@@H]3C4)C(=O)N2C1 (stereo partly drawn) [Example 257, (1S,4S)-bicyclo[2.2.1]hept-5-en-2-yl [(2R,6S,12Z,13aS,14aR,16aS)-5′-methyl-14a-{[(1-methylcyclopropyl)sulfonyl]carbamoyl}-5,16-dioxo-1,1′,2′,5,6,7,8,9,10,11,13a,14,14a,15,16,16a-hexadecahydrospiro[cyclopropa[e]pyrrolo[1,2-a][1,4]diazacyclopentadecine-2,3′-pyrano[2,3-c]quinolin]-6-yl]carbamate] | 3250 | 0.018 | –
Cc1nc2c(F)cccc2c2c1O[C@]1(CC2)C[C@H]2C(=O)N[C@]3(C(=O)NS(=O)(=O)C4(C)CC4)C[C@H]3/C=C\CCCCC[C@H](NC(=O)OCC(C)C)C(=O)N2C1 [Example 147, 2-methylpropyl [(2R,6S,12Z,13aS,14aR,16aS)-7′-fluoro-5′-methyl-14a-{[(1-methylcyclopropyl)sulfonyl]carbamoyl}-5,16-dioxo-1,1′,2′,5,6,7,8,9,10,11,13a,14,14a,15,16,16a-hexadecahydrospiro[cyclopropa[e]pyrrolo[1,2-a][1,4]diazacyclopentadecine-2,3′-pyrano[2,3-c]quinolin]-6-yl]carbamate] | 1050 | 0.01 | –
CC[C@@H](C)OC(=O)N[C@H]1CCCCC/C=C\[C@@H]2C[C@@]2(C(=O)NS(=O)(=O)C2(C)CC2)NC(=O)[C@@H]2C[C@]3(CCc4c(c(C5CC5)nc5ccc(OC)cc45)O3)CN2C1=O [Example 420, (2R)-butan-2-yl [(2R,6S,12Z,13aS,14aR,16aS)-5′-cyclopropyl-9′-methoxy-14a-{[(1-methylcyclopropyl)sulfonyl]carbamoyl}-5,16-dioxo-1,1′,2′,5,6,7,8,9,10,11,13a,14,14a,15,16,16a-hexadecahydrospiro[cyclopropa[e]pyrrolo[1,2-a][1,4]diazacyclopentadecine-2,3′-pyrano[2,3-c]quinolin]-6-yl]carbamate] | – | – | EC50 (HCV genotype 1b replicon; HCV replicon, genotype 1b, K+ salt): 1250 pM; IC50 ([1]; IC50 [gt-1b], NS3/4A protease TRF assay, genotype 1b enzyme 0.2 nM, K+ salt): 0.011 nM
Cc1nc2ccccc2c2c1O[C@]1(CC2)C[C@H]2C(=O)N[C@]3(C(=O)NS(=O)(=O)C4(C)CC4)C[C@H]3/C=C\CCCCC[C@H](NC(=O)OCC(C)C)C(=O)N2C1 [Example 97, 2-methylpropyl [(2R,6S,12Z,13aS,14aR,16aS)-5′-methyl-14a-{[(1-methylcyclopropyl)sulfonyl]carbamoyl}-5,16-dioxo-1,1′,2′,5,6,7,8,9,10,11,13a,14,14a,15,16,16a-hexadecahydrospiro[cyclopropa[e]pyrrolo[1,2-a][1,4]diazacyclopentadecine-2,3′-pyrano[2,3-c]quinolin]-6-yl]carbamate] | 1940 | 0.016 | –
Cc1nc2ccc(Cl)cc2c2c1O[C@]1(CC2)C[C@H]2C(=O)N[C@]3(C(=O)NS(=O)(=O)C4(C)CC4)C[C@H]3/C=C\CCCCC[C@H](NC(=O)OC3(C)CC3)C(=O)N2C1 [Example 184, 1-methylcyclopropyl [(2R,6S,12Z,13aS,14aR,16aS)-9′-chloro-5′-methyl-14a-{[(1-methylcyclopropyl)sulfonyl]carbamoyl}-5,16-dioxo-1,1′,2′,5,6,7,8,9,10,11,13a,14,14a,15,16,16a-hexadecahydrospiro[cyclopropa[e]pyrrolo[1,2-a][1,4]diazacyclopentadecine-2,3′-pyrano[2,3-c]quinolin]-6-yl]carbamate] | – | – | EC50 (HCV genotype 1b replicon; genotype 1b replicon, K+ salt): 4220 pM; IC50 [1, 4]: 0.004 nM
CCCCOC(=O)N[C@H]1CCCCC/C=C\[C@@H]2C[C@@]2(C(=O)NS(=O)(=O)C2(C)CC2)NC(=O)[C@@H]2C[C@]3(CCc4c(c(C5CC5)nc5cc(OC)ccc45)O3)CN2C1=O [Example 272, butyl [(2R,6S,12Z,13aS,14aR,16aS)-5′-cyclopropyl-8′-methoxy-14a-{[(1-methylcyclopropyl)sulfonyl]carbamoyl}-5,16-dioxo-1,1′,2′,5,6,7,8,9,10,11,13a,14,14a,15,16,16a-hexadecahydrospiro[cyclopropa[e]pyrrolo[1,2-a][1,4]diazacyclopentadecine-2,3′-pyrano[2,3-c]quinolin]-6-yl]carbamate] | – | – | EC50 (HCV genotype 1b replicon; genotype 1b replicon, HCOOH salt): 11200 pM; IC50 ([1]; IC50 [gt-1b] (nM), NS3/4A genotype 1b, enzyme 0.2 nM, HCOOH salt): 0.116 nM
COc1ccc2nc(C3CC3)c3c(c2c1)CC[C@]1(C[C@H]2C(=O)N[C@]4(C(=O)NS(=O)(=O)C5(C)CC5)C[C@H]4/C=C\CCCCC[C@H](NC(=O)NC(C)(C)C)C(=O)N2C1)O3 [Example 90, (2R,6S,12Z,13aS,14aR,16aS)-6-[(tert-butylcarbamoyl)amino]-5′-cyclopropyl-9′-methoxy-N-[(1-methylcyclopropyl)sulfonyl]-5,16-dioxo-1,1′,2′,6,7,8,9,10,11,13a,14,15,16,16a-tetradecahydrospiro[cyclopropa[e]pyrrolo[1,2-a][1,4]diazacyclopentadecine-2,3′-pyrano[2,3-c]quinoline]-14a(5H)-carboxamide] | 1150 | 0.006 | –
Cc1nc2ccc(OC(F)(F)F)cc2c2c1O[C@]1(CC2)C[C@H]2C(=O)N[C@]3(C(=O)NS(=O)(=O)C4(C)CC4)C[C@H]3/C=C\CCCCC[C@H](NC(=O)OCC(C)(C)C)C(=O)N2C1 [Example 297, 2,2-dimethylpropyl [(2R,6S,12Z,13aS,14aR,16aS)-5′-methyl-14a-{[(1-methylcyclopropyl)sulfonyl]carbamoyl}-5,16-dioxo-9′-(trifluoromethoxy)-1,1′,2′,5,6,7,8,9,10,11,13a,14,14a,15,16,16a-hexadecahydrospiro[cyclopropa[e]pyrrolo[1,2-a][1,4]diazacyclopentadecine-2,3′-pyrano[2,3-c]quinolin]-6-yl]carbamate] | 6060 | 0.009 | –
COc1ccc2nc(C(F)F)c3c(c2n1)CC[C@]1(C[C@H]2C(=O)N[C@]4(C(=O)NS(=O)(=O)C5(C)CC5)C[C@H]4/C=C\CCCCC[C@H](NC(=O)OCC(C)(C)C)C(=O)N2C1)O3 [Example 526, 2,2-dimethylpropyl [(2R,6S,12Z,13aS,14aR,16aS)-6′-(difluoromethyl)-2′-methoxy-14a-{[(1-methylcyclopropyl)sulfonyl]carbamoyl}-5,16-dioxo-1,5,6,7,8,9,9′,10,10′,11,13a,14,14a,15,16,16a-hexadecahydrospiro[cyclopropa[e]pyrrolo[1,2-a][1,4]diazacyclopentadecine-2,8′-pyrano[2,3-c][1,5]naphthyridin]-6-yl]carbamate] | – | – | EC50 (HCV genotype 1b replicon; HCV replicon, genotype 1b): 2590 pM; IC50 [1, 2]: 0.005 nM
CC1(S(=O)(=O)NC(=O)[C@@]23C[C@H]2/C=C\CCCCC[C@H](NC(=O)OC2CCCCC2)C(=O)N2C[C@@]4(CCc5c(c(C6CC6)nc6c(F)cccc56)O4)C[C@H]2C(=O)N3)CC1 [Example 166, cyclohexyl [(2R,6S,12Z,13aS,14aR,16aS)-5′-cyclopropyl-7′-fluoro-14a-{[(1-methylcyclopropyl)sulfonyl]carbamoyl}-5,16-dioxo-1,1′,2′,5,6,7,8,9,10,11,13a,14,14a,15,16,16a-hexadecahydrospiro[cyclopropa[e]pyrrolo[1,2-a][1,4]diazacyclopentadecine-2,3′-pyrano[2,3-c]quinolin]-6-yl]carbamate] | 2400 | 0.019 | –
Cc1nc2ccc(OC(F)(F)F)cc2c2c1O[C@@]1(C[C@H]3C(=O)N[C@]4(C(=O)NS(=O)(=O)C5(C)CC5)C[C@H]4/C=C\CCCCC[C@H](NC(=O)OC4CCCC4)C(=O)N3C1)CC2(F)F [Example 227, cyclopentyl [(2S,6S,12Z,13aS,14aR,16aS)-1′,1′-difluoro-5′-methyl-14a-{[(1-methylcyclopropyl)sulfonyl]carbamoyl}-5,16-dioxo-9′-(trifluoromethoxy)-1,1′,2′,5,6,7,8,9,10,11,13a,14,14a,15,16,16a-hexadecahydrospiro[cyclopropa[e]pyrrolo[1,2-a][1,4]diazacyclopentadecine-2,3′-pyrano[2,3-c]quinolin]-6-yl]carbamate] | – | – | EC50 (HCV genotype 1b replicon; genotype 1b replicon, K+ salt): 28400 pM; IC50 [1, 4]: 0.043 nM
